ChEMBL document CHEMBL4706653, “Ultra-short lipopeptides against gram-positive bacteria while alleviating antimicrobial resistance” (Eur J Med Chem, 2021)
The source made the active and inactive calls. The calls are words filed in the database; no cut-off is given here. Residues, ends and D or L forms follow the SMILES beside them. *: point of attachment. Myristoyl = CCCCCCCCCCCCCC(=O)*; Lauroyl = CCCCCCCCCCCC(=O)*

Columns and labels:
Staphylococcus aureus = test: Antimicrobial activity against Staphylococcus aureus ATCC 25923 assessed as bacterial killing at MIC preincubated for 1 hr followed by replating on MHB agar and measured after 24 hrs by time kill assay; type: functional, organism-based; settings: time 25.0 hrs
Mus musculus = test: Antiinflammatory activity in Staphylococcus aureus ATCC 25923 infected neutropenia BALB/c mouse assessed as reduction in TNFalpha level in serum at 10 to 20 mg/kg, ip administered staring from 2 hrs post infection and measured 8 hrs post-infected; type: functional, organism-based; settings: dose 10-20 mg/kg, time 6.0 hrs
HEK-293T = test: Cytotoxicity against HEK293T cells assessed as reduction in cell viability at 64 to 128 uM measured after 24 hrs by MTT assay; type: cell-based; settings: human, dose 64-128 µM

## CCCCCCCCCCCCCC(=O)N[C@@H](CCCNC(=N)N)C(=O)N[C@@H](Cc1c[nH]c2ccccc12)C(=O)N[C@@H](Cc1c[nH]c2ccccc12)C(N)=O (Myristoyl-Arg-Trp-Trp-NH2)
Staphylococcus aureus
  Activity: Active
Mus musculus
  Activity: Active

## CCCCCCCCCCCC(=O)N[C@@H](CCCNC(=N)N)C(=O)N[C@@H](CCCNC(=N)N)C(=O)N[C@@H](Cc1c[nH]c2ccccc12)C(N)=O (Lauroyl-Arg-Arg-Trp-NH2)
HEK-293T
  Activity: Toxic
